How the values were obtained:
[1] = tested on: guinea pig tracheal spiral preparations; experiment: Bronchodilation in vitro; guinea pig tracheal spiral preparations; assay type: cell-based; settings: Cavia porcellus; for Emax: guinea pig tracheal spirals, relaxation relative to 10^-3 M isoprenaline, read-out: Intrinsic Activity; for IC50: relaxation as percentage of total relaxation by 10^-3 M isoprenaline, cumulative dosing 10^-8 - 2×10^-5 M, 37° C
Protocol: (a) Bronchodilation in vitro; guinea pig tracheal spiral preparations
Male guinea pigs (300-600 g) were stunned by a blow to the head and bled from the carotid artery. The trachea was exposed, dissected free of connective tissue, and transferred to oxygenated krebs solution at 37° C. Next, spirals (2 per trachea) were prepared by cutting the whole trachea spirally along its longitudinal axis and then dividing this spiral lengthwise. Each preparation was mounted, using silk thread, in a 10 ml organ bath filled with krebs solution at 37° C. and bubbled with 5% CO2 with O2. The resting tension of the preparations was set at 2 g and changes in muscle tension were monitored isometrically by means of a UFI (2 oz) force and displacement transducer (Ormed Ltd) connected to a Linseis pen recorder. All preparations were allowed to equilibrate for 60 minutes. During this equilibration period the preparations were washed by upward displacement at 15 minute intervals and, if necessary, the resting tension was readjusted to 2 g using a mechanical micromanipulator system.
Once a steady resting tension had been obtained, the preparations were dosed cumulatively with the test compound (10^-8 -2×10^-5 M), and finally a maximum relaxation achieved by addition of 10^-3 M isoprenaline. The fall in tension evoked by the test compound was expressed as a percentage of the total relaxation evoked in the presence of 10^-3 M isoprenaline. Appropriate concentration-relaxation curves were then constructed and values for potency (IC50) were obtained.
The composition of Krebs solution is: sodium chloride 118.07 mM, sodium hydrogen carbonate 26.19 mM, potassium chloride 4.68 mM, potassium orthophosphate 1.18 mM, magnesium sulphate septahydrate 1.8 mM and calcium chloride 2.52 mM; pH ca. 7.45.

[2] = tested on: Spontaneously hypertensive rats; experiment: Blood Pressure Lowering Activity (systolic blood pressure, tail cuff method); assay type: in vivo, rat
Protocol: Blood Pressure Lowering Activity
Systolic blood pressures were recorded by a modification of the tail cuff method described by I. M. Claxton, M. G. Palfreyman, R. H. Poyser, R. L. Whiting, European Journal of Pharmacology, 37, 179 (1976). A W+W BP recorder, model 8005 was used to display pulses. Prior to all measurements rats were placed in a heated environment (33.5°±0.5° C.) before transfer to a restraining cage. Each determination of blood pressure was the mean of at least 6 readings. Spontaneously hypertensive rats (ages 12-18 weeks) with systolic blood pressures>180 mmHg were considered hypertensive.

SMILES: CC1(C)Oc2ccc(C#N)cc2[C@@H](n2ccccc2=O)[C@@H]1O (relative stereo) [Example 1, Trans-6-Cyano-3,4-dihydro-2,2-dimethyl-4-(2(1H)-pyridon-1-yl)-2H-1-benzopyran-3-ol]
- Emax [1]: 96%
- IC50 [1]: 790 nM
- % Change in Systolic B.P. ([2]; 0.1 mg/kg p.o., 1 h post dose): -12 ± 5%
- % Change in Systolic B.P. ([2]; 0.1 mg/kg p.o., 2 h post dose): -20 ± 2%
- % Change in Systolic B.P. ([2]; 0.1 mg/kg p.o., 4 h post dose): -21 ± 3%
- % Change in Systolic B.P. ([2]; 0.1 mg/kg p.o., 6 h post dose): -23 ± 5%

SMILES: CC1(C)Oc2ccc(C(F)(F)F)cc2[C@@H](n2ccccc2=O)[C@@H]1O (relative stereo) [Example 4, Trans-3,4-Dihydro-2,2-dimethyl-6-trifluoromethyl-4-(2(1H)-pyridon-1-yl)-2H-1-benzopyran-3-ol]
- Emax [1]: 95%
- IC50 [1]: 540 nM
- % Change in Systolic B.P. ([2]; 0.3 mg/kg p.o., 2 h post dose): -42 ± 3%
- % Change in Systolic B.P. ([2]; 0.3 mg/kg p.o., 4 h post dose): -32 ± 5%
- % Change in Systolic B.P. ([2]; 0.3 mg/kg p.o., 6 h post dose): -34%

SMILES: CC1(C)Oc2ccncc2[C@@H](n2ccccc2=O)[C@@H]1O (relative stereo) [Example 6]
- Emax [1]: 81%
- IC50 [1]: 5500 nM

SMILES: CC1(C)C=C(n2ccccc2=O)c2cc(C#N)ccc2O1 [Example 2, 6-Cyano-2,2-dimethyl-4-(2(1H)-pyridon-1-yl)-2H-1-benzopyran]
- Emax [1]: 92%
- IC50 [1]: 100 nM
- % Change in Systolic B.P. ([2]; 0.03 mg/kg p.o., 2 h post dose): -41 ± 3%
- % Change in Systolic B.P. ([2]; 0.03 mg/kg p.o., 4 h post dose): -38%
- % Change in Systolic B.P. ([2]; 0.03 mg/kg p.o., 6 h post dose): -32 ± 3%

SMILES: CC1(C)C=C(n2ccc(=O)cc2)c2cc(C#N)ccc2O1 [Example 3, 6-Cyano-2,2-dimethyl-4-(4(1H)-pyridon-1-yl)-2H-1-benzopyran]
- Emax [1]: 75%
- IC50 [1]: 11000 nM
- % Change in Systolic B.P. ([2]; 3 mg/kg p.o., 1 h post dose): -46 ± 7%
- % Change in Systolic B.P. ([2]; 3 mg/kg p.o., 2 h post dose): -49 ± 3%
- % Change in Systolic B.P. ([2]; 3 mg/kg p.o., 4 h post dose): -63%
- % Change in Systolic B.P. ([2]; 3 mg/kg p.o., 6 h post dose): -57 ± 3%

SMILES: CC1(C)C=C(n2ccccc2=O)c2cc(C(F)(F)F)ccc2O1 [Example 5, 2,2-Dimethyl-6-trifluoromethyl-4-(2(1H)-pyridon-1-yl)-2H-1-benzopyran]
- Emax [1]: 99%
- IC50 [1]: 52 nM
- % Change in Systolic B.P. ([2]; 0.03 mg/kg p.o., 1 h post dose): -15 ± 3%
- % Change in Systolic B.P. ([2]; 0.03 mg/kg p.o., 2 h post dose): -20 ± 1%
- % Change in Systolic B.P. ([2]; 0.03 mg/kg p.o., 4 h post dose): -25 ± 3%
- % Change in Systolic B.P. ([2]; 0.03 mg/kg p.o., 6 h post dose): -28 ± 1%

SMILES: CC1(C)C=C(n2ccccc2=O)c2cnccc2O1 [Example 7, 2,2-Dimethyl-4-(2(1H)-pyridon-1-yl)-2H-pyrano[3,2-c]pyridine]
- Emax [1]: 93%
- IC50 [1]: 2400 nM

— patent publication US5254557A, “Compound and treatment” (Beecham Group p.l.c., priority 1988, dated 1993)
